According to ChEMBL document CHEMBL1914295, “Synthesis and biological evaluation of some novel triazol-3-ones as antimicrobial agents” (2011):

Experiments:
Type in all cases: functional
Conditions in all cases: read-out: IZ
Fusarium solani [1] = assay: Antifungal activity against Fusarium solani at 100 ug/ml after 48 hrs by disc diffusion method
Candida albicans [2] = assay: Antifungal activity against Candida albicans at 100 ug/ml after 48 hrs by disc diffusion method
Escherichia coli [3] = assay: Antibacterial activity against Escherichia coli at 200 ug/ml after 24 hrs by disc diffusion method
Escherichia coli [4] = assay: Antibacterial activity against Escherichia coli at 100 ug/ml after 24 hrs by disc diffusion method
Staphylococcus aureus [5] = assay: Antibacterial activity against Staphylococcus aureus at 100 ug/ml after 24 hrs by disc diffusion method
Bacillus subtilis [6] = assay: Antibacterial activity against Bacillus subtilis at 200 ug/ml after 24 hrs by disc diffusion method
Klebsiella pneumoniae [7] = assay: Antibacterial activity against Klebsiella pneumoniae at 200 ug/ml after 24 hrs by disc diffusion method
Aspergillus niger [8] = assay: Antifungal activity against Aspergillus niger at 100 ug/ml after 48 hrs by disc diffusion method
Candida albicans [9] = assay: Antifungal activity against Candida albicans at 200 ug/ml after 48 hrs by disc diffusion method
Fusarium solani [10] = assay: Antifungal activity against Fusarium solani at 200 ug/ml after 48 hrs by disc diffusion method
Aspergillus niger [11] = assay: Antifungal activity against Aspergillus niger at 200 ug/ml after 48 hrs by disc diffusion method
Staphylococcus aureus [12] = assay: Antibacterial activity against Staphylococcus aureus at 200 ug/ml after 24 hrs by disc diffusion method
Klebsiella pneumoniae [13] = assay: Antibacterial activity against Klebsiella pneumoniae at 100 ug/ml after 24 hrs by disc diffusion method
Bacillus subtilis [14] = assay: Antibacterial activity against Bacillus subtilis at 100 ug/ml after 24 hrs by disc diffusion method

| Compound | zone of inhibition at 100 µg/mL (Fusarium solani [1]) [mm] | zone of inhibition at 100 µg/mL (Candida albicans [2]) [mm] | zone of inhibition at 200 µg/mL (Escherichia coli [3]) [mm] | zone of inhibition at 100 µg/mL (Escherichia coli [4]) [mm] | zone of inhibition at 100 µg/mL (Staphylococcus aureus [5]) [mm] | zone of inhibition at 200 µg/mL (Bacillus subtilis [6]) [mm] | zone of inhibition at 200 µg/mL (Klebsiella pneumoniae [7]) [mm] | zone of inhibition at 100 µg/mL (Aspergillus niger [8]) [mm] | zone of inhibition at 200 µg/mL (Candida albicans [9]) [mm] | zone of inhibition at 200 µg/mL (Fusarium solani [10]) [mm] | zone of inhibition at 200 µg/mL (Aspergillus niger [11]) [mm] | zone of inhibition at 200 µg/mL (Staphylococcus aureus [12]) [mm] | zone of inhibition at 100 µg/mL (Klebsiella pneumoniae [13]) [mm] | zone of inhibition at 100 µg/mL (Bacillus subtilis [14]) [mm] |
| --- | --- | --- | --- | --- | --- | --- | --- | --- | --- | --- | --- | --- | --- | --- |
| O=c1[nH]ncn1-c1nc(-c2ccsc2)cs1 | 32 | 35 | 26 | 24 | 25 | 29 | 26 | 34 | 38 | 37 | 39 | 28 | 22 | 27 |
| Cn1ncn(-c2nc(-c3ccsc3)cs2)c1=O | 40 | 36 | 25 | 23 | 32 | 36 | 28 | 39 | 40 | 43 | 42 | 35 | 26 | 34 |
| CCn1ncn(-c2nc(-c3ccsc3)cs2)c1=O | 29 | 23 | 29 | 23 | 24 | 27 | 28 | 21 | 29 | 32 | 24 | 32 | 26 | 21 |
| CC(C)n1ncn(-c2nc(-c3ccsc3)cs2)c1=O | 27 | 22 | 24 | 22 | 25 | 23 | 29 | 30 | 24 | 29 | 33 | 27 | 26 | 20 |
| CC(C)Cn1ncn(-c2nc(-c3ccsc3)cs2)c1=O | 26 | 17 | 21 | 17 | 16 | 18 | 18 | 26 | 21 | 30 | 27 | 20 | 15 | 16 |
| N#CCn1ncn(-c2nc(-c3ccsc3)cs2)c1=O | 28 | 28 | 29 | 26 | 28 | 26 | 21 | 27 | 32 | 34 | 29 | 31 | 16 | 23 |
| COCCCn1ncn(-c2nc(-c3ccsc3)cs2)c1=O | 34 | 24 | 28 | 24 | 24 | 26 | 28 | 26 | 28 | 36 | 28 | 26 | 25 | 23 |
| CC1Sc2sccc2-c2nc(-n3cn[nH]c3=O)sc21 (configuration not stated) | 22 | 25 | 20 | 15 | 18 | 23 | 20 | 26 | 28 | 24 | 29 | 21 | 17 | 20 |
